Results reported in patent US9814732B2, “Ulipristal acetate for prevention and treatment of breast tumors” (LABORATOIRE HRA-PHARMA, priority 2012, dated 2017).

How the values were obtained:
[1] = biological target: T1, GR (Homo sapiens, UniProt P04150); assay: GRE-Luc reporter gene transactivation in MCF-7 cells; type: cell-based; set-up: endogenous in cells; host or cells: MCF-7; details: MCF7, DEX 100 nM, test compound 100 nM, read-out: inhibition of DEX-induced luciferase transactivation (GRE-Luc)
T1 sequence (P04150 1-777): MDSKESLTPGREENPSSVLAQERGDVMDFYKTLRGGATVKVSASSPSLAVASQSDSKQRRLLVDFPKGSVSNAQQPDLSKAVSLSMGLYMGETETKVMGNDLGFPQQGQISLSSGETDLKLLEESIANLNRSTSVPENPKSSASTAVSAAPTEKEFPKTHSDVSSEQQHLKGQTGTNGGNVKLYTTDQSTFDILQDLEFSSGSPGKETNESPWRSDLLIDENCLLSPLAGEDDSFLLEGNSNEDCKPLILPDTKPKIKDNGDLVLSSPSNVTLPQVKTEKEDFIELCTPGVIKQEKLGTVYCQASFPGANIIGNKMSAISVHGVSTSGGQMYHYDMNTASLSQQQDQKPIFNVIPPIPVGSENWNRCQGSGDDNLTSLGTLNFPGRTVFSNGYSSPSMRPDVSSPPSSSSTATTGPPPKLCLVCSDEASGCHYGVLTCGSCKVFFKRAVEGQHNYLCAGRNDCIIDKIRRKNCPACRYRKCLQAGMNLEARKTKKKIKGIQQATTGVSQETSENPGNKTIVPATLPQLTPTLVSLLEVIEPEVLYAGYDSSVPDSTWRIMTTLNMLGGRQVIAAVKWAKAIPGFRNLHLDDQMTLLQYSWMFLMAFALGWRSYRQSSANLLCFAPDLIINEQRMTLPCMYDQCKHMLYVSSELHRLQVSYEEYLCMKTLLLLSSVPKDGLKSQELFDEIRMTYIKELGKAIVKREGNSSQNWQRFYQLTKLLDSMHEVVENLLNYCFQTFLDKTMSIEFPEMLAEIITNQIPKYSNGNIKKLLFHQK

[2] = tested on: T-47D cells; assay: Apoptosis, sub-G1 quantification by flow cytometry in T-47D cells; type: cell-based, human; details: 48 h
Method: (§1) After seeding, cells were cultured for 24 h in serum and phenol red free medium. Then treatments were carried out in a phenol red free medium containing 5% dextran-charcoal stripped serum. Cells were treated with P or DEX (100 nM), alone or in combination with UPA, RU (1 nM to 1 μM) or CDB-3877 (100 nM). Control cells were treated with ethanol, at […] 1:1000 final ethanol concentration alone as vehicle or E2 (10 nM).
(§2) After 96 h or 48 h of hormonal treatment, respectively, for HBE or MCF-7 and T-47D cells, cells were washed in PBS, matrix dissociated with accutase enzyme (PAA laboratory, Les Mureaux, France), and centrifuged 5 minutes at 1350 rpm. Cells were fixed and frozen at −20° C. in 70% ethanol. Before analysis, cells were washed in PBS and stained with 10 μg/ml propidium iodide in PBS (containing 0.835 U/ml RNase A) (Sigma, St Quentin Fallavier, France). For each sample at least 10 000 cells were counted in a BD LSR II flow cytometer (BD Biosciences, Le Pont de Claix, France). After gating out doublets and debris, cycle distribution was analyzed using the ModFit LT software (Verity Software House, USA).

[3] = tested on: HBE cells; assay: Apoptosis, sub-G1 quantification by flow cytometry in HBE cells; type: cell-based, human; details: 96 h
Method: as §1, §2

[4] = Tolerability and body weight in HBCx-34 tumor-bearing nude mice; type: in vivo; details: UPA 130 mg/kg p.o., 42 days
Method: Mice were allocated to different groups according to their tumor volume to give homogenous mean and median tumor volume in each treatment arms. Ten mice/group, with HBCx-34 tumors between 75 and 144 mm^3, were randomized according to their tumor volume into experimental groups, and treatments (UPA 130 mg/kg, p.o. or control vehicle) were initiated 33 days post implantation of the tumor for a total duration of 42 days.
Animals were weighted biweekly during all the experimental period. Toxicity of the different treatments was determined as body weight loss.

[5] = biological target: T2, PR (Homo sapiens, UniProt P06401); assay: MMTV-Luc reporter gene transactivation in T-47D cells; type: cell-based; set-up: constitutively expressed high amounts of PR (progesterone receptor); endogenous in cells; host or cells: T-47D
T2 sequence (P06401 1-933): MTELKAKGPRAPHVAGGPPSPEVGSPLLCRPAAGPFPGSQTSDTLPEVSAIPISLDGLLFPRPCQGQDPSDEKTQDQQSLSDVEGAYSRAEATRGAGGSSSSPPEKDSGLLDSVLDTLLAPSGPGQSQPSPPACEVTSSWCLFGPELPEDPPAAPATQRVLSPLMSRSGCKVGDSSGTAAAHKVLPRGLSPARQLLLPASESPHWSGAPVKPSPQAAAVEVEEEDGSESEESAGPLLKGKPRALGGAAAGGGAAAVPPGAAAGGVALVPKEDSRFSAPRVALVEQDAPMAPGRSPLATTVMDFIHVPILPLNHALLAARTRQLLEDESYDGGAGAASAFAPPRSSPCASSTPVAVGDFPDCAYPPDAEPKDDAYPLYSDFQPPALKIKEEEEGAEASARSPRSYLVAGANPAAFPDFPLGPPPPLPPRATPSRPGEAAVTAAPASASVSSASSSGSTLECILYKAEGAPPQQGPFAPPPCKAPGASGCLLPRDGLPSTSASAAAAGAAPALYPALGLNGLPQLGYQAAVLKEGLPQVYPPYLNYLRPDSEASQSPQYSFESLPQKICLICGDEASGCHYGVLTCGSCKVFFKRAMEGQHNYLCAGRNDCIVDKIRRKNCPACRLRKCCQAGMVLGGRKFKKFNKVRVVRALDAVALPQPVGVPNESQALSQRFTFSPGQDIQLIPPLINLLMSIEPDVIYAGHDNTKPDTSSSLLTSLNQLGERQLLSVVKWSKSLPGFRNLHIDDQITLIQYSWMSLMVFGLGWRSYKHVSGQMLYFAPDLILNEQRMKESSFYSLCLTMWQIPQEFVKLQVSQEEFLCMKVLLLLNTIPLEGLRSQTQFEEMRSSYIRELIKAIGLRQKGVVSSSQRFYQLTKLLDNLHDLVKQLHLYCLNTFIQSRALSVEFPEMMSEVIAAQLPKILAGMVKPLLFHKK
Method: T-47D and MCF-7 cell lines were respectively maintained in RPMI 1640 and in DMEM medium supplemented with 10% fetal calf serum (PAA Laboratory, Les Mureaux, France). […] Normal human breast epithelial cell (HBE) primary cultures were obtained from 20 women (aged 17-50 years). […] HBE cells were maintained in HAM F10 medium (PAA Laboratory, Les Mureaux, France) containing hydrocortisone (5 ng/ml), Triiodo-L-thyronine (6.5 ng/ml), choleratoxin (10 ng/ml), transferrin (5 mg/ml), insulin (0.016 U/ml), epidermal growth factor (10 ng/ml) (Sigma, St Quentin Fallavier, France) and 5% human serum (Etablissement Français du Sang).
After seeding, cells were cultured for 24 h in serum and phenol red free medium. Then treatments were carried out in a phenol red free medium containing 5% dextran-charcoal stripped serum. […] Control cells were treated with ethanol, at 10 1:1000 final ethanol concentration alone as vehicle or E2 (10 nM).
Cells were transfected with reporter gene plasmids containing glucocorticoid and progesterone responsive elements (GRE/PRE): 1) the MMTV-Luc is a Mouse Mammary Tumor Virus Long Terminal Repeat promoter containing one GRE/PRE palindrome and three GRE/PRE hemi-palindromes upstream to firefly luciferase gene in pFC31 vector, 2) the GRELuc contains six copies of GRE/PRE palindrome upstream to firefly luciferase gene in pBL vector. When indicated, HBE cells were transfected with human PR isoforms hPR-A and hPR-B expression plasmids constructed in POP3 vectors. Rous Sarcoma Virus promoter upstream to beta galactosidase gene (pRSV-β-Gal) was transfected in each experiment as control. Transfections were performed according to the manufacturer instructions using Lipofectamine or Lipofectamine LTX Reagents (Invitrogen, Cergy-Pontoise, France) for breast cancer cell lines or HBE cells, respectively. After 24 h of transfection, breast cancer and HBE cells were treated with hormones for 24 h or 48 h, respectively. At the end of the experiment, cells were lysed and luciferase activity was determined using the Luciferase Assay System (Promega, Charbonnières-les-bains, France). Beta galactosidase activity was assessed using the Galacto Star kit (Applied Biosystems, Courtaboeuf, France) to normalize luciferase activity data.

CC(=O)O[C@]1(C(C)=O)CCC2C3CCC4=CC(=O)CCC4=C3[C@@H](c3ccc(N(C)C)cc3)C[C@@]21C (stereo partly drawn) [UPA, 17[…]-acetoxy-11[…]-[4-N,N-dimethylamino-phenyl)-19-norpregna-4,9-diene-3,20-dione]
inhibition at 0.1 µM [1]: 59 ± 3.4% | cell apoptosis (sub-G1 percentage), compound alone ([2]; 100 nM): had no apoptotic or survival properties by itself | effect of UPA on P-mediated apoptosis ([2]; P 100 nM + UPA 100 nM): tended to inhibit this effect | cell apoptosis (sub-G1 percentage), compound alone ([3]; 100 nM): had no apoptotic or survival properties by itself | effect of UPA on DEX-mediated anti-apoptotic effect ([3]; DEX 100 nM + UPA 100 nM): both hormones activities were reversed | effect of UPA on P-mediated apoptosis ([3]; P 100 nM + UPA 100 nM): both hormones activities were reversed | body weight loss [4]: no significant body weight loss | tolerability of treatment [4]: well tolerated | treatment related clinical observation [4]: No treatment related clinical observation | PR antagonist response on MMTV-Luc transactivation at 1 nM ([5]; P 100 nM, antagonist 1 nM): Partial antagonist responses | PR antagonist action on MMTV-Luc transactivation ([5]; P 100 nM, antagonist 1000 to 10 nM): potent PR antagonist actions from 1000 to 10 nM | progestational agonist properties on reporter gene transcription ([5]; compound alone): did not exhibit progestational agonist properties
